Columns and labels:
rabbit's blood platelets = assay: Effect of compound F on aggregation of rabbit's blood platelets in vitro; type: cell-based
Method: Effect of Compound F on Blood Platelet Aggregation in Rabbit
Take blood from rabbit heart by puncturing, add 3.8% of potassium citrate for anticoagulation (1:9), centrifuge for 15 minutes at 1000 rpm, take the upper layer as blood platelet rich plasma (prp), and then centrifuge for 10 minutes at […], and take supematant as blood platelet poor plasma (ppp). The final concentration of compound F is respectively 250, 500, 1000 μg/ml, and the final concentration is respectively 250, 500, 1000 ug/ml. Add 10 ul of physical brine of aspirin to the positive-control tube to a final concentration of 250 μg/ml, and add 10 μl of physical brine to the control tube […]. Observe the maximal aggregation ratio on PAM-1 type instrument of blood platelet aggregation within 3 minute.

[1] = tested on: blood platelet aggregation in rabbits; assay: Effect of compound B on blood platelet aggregation in rabbits in vitro (ADP); type: cell-based, rabbit
Method: Blood was taken from rabbit heart by puncture, to which was added 3.8% potassium citrate for anticoagulation (1:9). Certification for 15 minute at 1000 rpm takes the upper layer as rich blood platelet plasma (prp), and then centrifugation for 10 minutes with 4000 rpm takes the supernatant as poor blood platelet plasma (ppp). […] 10 μl physiological brine of aspirin was added to a positive control tube, then it was put into a measuring cell after warming for 2 minutes at 37° C. 10 ul of physiological brine solution of ADP sodium salt was added with stirring. The final concentration is […]. The maximal aggregation ratio on PAM-1 type of blood platelet instrument was observed within 3 minutes.

[2] = tested on: Male Kun Ming strain mice; assay: Effect of compound F on blood sugar elevation after oral dextrose; type: in vivo; conditions: dose 50 mg/kg oral, 7 days
Method: Effect of compound F on blood sugar elevation in rat.
Male Kun Ming strain mice are divided into randomly experimental groups, and they respectively took orally the compound F at […]. The positive control group took orally glybenclamide 50 mg/kg, and the blank control group and normal control group take orally the same distilled water. The volume of medicine given is 20 ml/kg, lasting 7 days. They are forbidden to give feedstuff 10 hours before the last time of administration. Each group is given 2.5 g/kg (10 ml/kg) dextrose solution except of normal control group. Before and after 30 minute of administration of dextrose, 100 ul of blood was sampled from the eyepit, and the content of dextrose in serum was measured by way of dextrose oxygenation enzyme.

Female SD rats = assay: Effect on increasing blood sugar in rats caused by sucrose; type: in vivo, rat; conditions: for Value of blood sugar: dose 100 mg/kg
Method: Female SD rats fasted for 24 hours and were randomly divided into several groups. […] The normal group, control group and blank group were given the same amount of water. The given medicine volume was […], after 30 minutes each group was given saccharose 1/kg(5 ml/kg) except the normal group, and blood was extracted from the eyes of rats after 30, 60 and 120 minutes respectively, the content of glucose in the serum was measured.

normal mice = assay: Effect of compound B on blood sugar in normal mice; type: in vivo; conditions: for Value of blood sugar: dose 100 mg/kg
Method: The positive control group orally took tolbutol at 100 mg/kg. The blank control group took orally same distilled water. The volume of medicine given is 20 ml/kg, lasting 14 days. The test drug was administered (provided that they are pre-forbidden to give food 5 hrs before administration) after the days 1, 3, 7, 14 of administration. 3 hrs after administration, blood (10 ul) was taken from the eyepit. The content of dextrose in serum was measured by reagent box.

For CC(=O)Oc1ccccc1C(=O)O [Aspirin, aspirin], the inhibition at 250 µg/mL (rabbit's blood platelets; Oryctolagus cuniculus, Platelet, final concentration 250 μg/ml, read-out: Inhibition rate (%)) was 50.3%, the “Inhibition of aggregation of blood platelet (in words)” value (rabbit's blood platelets; compound F 500, 1000 μg/ml, aspirin 250 μg/ml) was “obviously inhibit the aggregation of blood platelet” and the “Maximal aggregation rate (%)” value (rabbit's blood platelets; final concentration 250 μg/ml, within 3 minute) was 23.7 ± 6.0 %. For the same molecule, the “Inhibition of blood platelet aggregation (in words)” value ([1]; compound B 500, 1000 μg/ml, aspirin 250 μg/ml) was “obviously inhibit blood platelet from aggregating”, the Inhibition ratio ([1]; final concentration 250) was 50.3 and the “Maximal aggregation ratio (%)” value ([1]; final concentration 250 (μg/ml), ADP, within 3 minutes) was 23.7 ± 6.0 %.

For COc1ccc(Cl)cc1C(=O)NCCc1ccc(S(=O)(=O)NC(=O)NC2CCCCC2)cc1 [glybenclamide], the “Value of blood sugar” value ([2]; 0 minute (before dextrose)) was 4.48 ± 0.83 and the “Value of blood sugar” value ([2]; 30 minutes after dextrose) was 8.18 ± 1.72.

In the case of [H]/N=C(/N)N/C(=N/[H])NCCc1ccccc1 [phenformin], the “Effect on the increased value of blood sugar (in words)” value (Female SD rats; compound B 200 mg/kg, performing 100 mg/kg, within 30 minutes) is reported as “reduce the increased value of blood sugar remarkably”, the “Value of blood sugar” value (Female SD rats; 30 minutes after sucrose) is reported as 4.24 ± 0.87 mmol/L and the “Value of blood sugar” value (Female SD rats; 60 minutes after sucrose) is reported as 4.74 ± 0.90 mmol/L. The “Value of blood sugar” value (Female SD rats; 120 minutes after sucrose) was 4.79 ± 1.03 mmol/L.

For CCCCNC(=O)NS(=O)(=O)c1ccc(C)cc1 [tolbutol], the “Effect on blood sugar of normal mice (in words)” value (normal mice; Compound B 50, 100, 200 mg/kg for 14 days, tolbutol from day 3) was “obvious effect for lowering the blood sugar of normal mice”, the “Value of blood sugar” value (normal mice; day 1) was 6.48 ± 1.18 and the “Value of blood sugar” value (normal mice; day 3) was 5.22 ± 0.80. For the same molecule, the “Value of blood sugar” value (normal mice; day 7) was 6.62 ± 0.96 and the “Value of blood sugar” value (normal mice; day 14) was 5.75 ± 1.02.

— US6833443B1, “Gymnemic acid derivatives, process for the preparation thereof and use thereof as medicine” (Guilin Jiqi Pharmaceutical Co., Ltd., priority 1999, dated 2004)
